Earlier results as cited in US20190192601A1, “EXTRACTS OF CYCLANTHERA PEDATA AND FORMULATIONS AND USES THEREOF” (priority 2014, published 2019).

Experiments:
[1] = in vivo

Compound	plasma lipid levels [1]	lower risk of heart disease (patients; supplementation with 30 IU to 100 IU) [%]	progression of coronary artery disease (patients; supplementation with 100 IU)
O=C(CCCN1CCN(c2ccc(F)cc2)CC1)NC1c2ccccc2CSc2ccccc21 (stereo not drawn) [Monatepil]	found to reduce	–	–
vitamin E	–	41	reduced progression
